In US20080242688A1, “Method 741” (ASTRAZENECA AB, priority 2007, published 2008):
“And” between values parts separate entries of the source, which are not always exact repeats. Equal values may be shown once.

Tests used:
[1] = molecular target: rat brain α7 receptors (Rattus norvegicus, UniProt Q05941); assay: BTX binding, rat hippocampal membranes
Protocol: AZD0328 is a reversible, high affinity ligand of human recombinant and rat brain α7 receptors. […]. Systemic administration of AZD0328 occupied rat brain α7 receptors and increased the number of α7 receptor binding sites. Very low doses of AZD0328 (0.00048-0.0016 mg/kg) improved spatial working memory performance in rhesus monkeys. The pharmacological profile of AZD0328 illustrates its potential utility to improve cognitive function by activating the α7 receptor.
(§1) . In Xenopus oocytes injected with human, recombinant α7 receptor mRNA, AZD0328 activates whole cell currents (Table 2). […] In acutely dissociated rat hippocampal interneurons, AZD0328 elicits rapidly activated, desensitizing whole-cell current (Table 1), consistent with the known properties of rat neuronal α7 receptors. […] AZD0328 modulates synaptic function, consistent with the well-known role of α7 receptors as heteroreceptor modulators of glutamatergic and GABAergic synaptic function.

[2] = molecular target: α7 receptor (Rattus norvegicus, UniProt Q05941); assay: Hippocampal slice GABA sIPSC frequency; format: cell-based; conditions: 5 μM
α7 receptor, sequence (Q05941 23-502): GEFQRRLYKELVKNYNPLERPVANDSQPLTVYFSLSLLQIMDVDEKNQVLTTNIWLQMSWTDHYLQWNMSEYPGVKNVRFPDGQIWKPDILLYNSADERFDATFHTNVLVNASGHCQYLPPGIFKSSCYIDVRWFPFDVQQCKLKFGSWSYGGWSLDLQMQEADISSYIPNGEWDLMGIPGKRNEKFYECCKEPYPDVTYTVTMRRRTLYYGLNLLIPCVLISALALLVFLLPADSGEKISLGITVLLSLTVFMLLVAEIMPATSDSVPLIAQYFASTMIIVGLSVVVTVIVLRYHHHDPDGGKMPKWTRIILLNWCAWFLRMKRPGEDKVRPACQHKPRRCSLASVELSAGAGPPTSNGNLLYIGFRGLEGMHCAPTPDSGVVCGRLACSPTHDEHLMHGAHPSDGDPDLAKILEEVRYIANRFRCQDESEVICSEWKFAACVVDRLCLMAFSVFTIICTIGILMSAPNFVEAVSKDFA
Excerpt: as §1, with “In membranes prepared either from cultured, human recombinant α7 receptor-expressing, human embryonic kidney cells α7-HEK) or from rat brain hippocampus, AZD0328 competed with binding of an iodinated form of the high-affinity, selective α7 receptor antagonist snake toxin, [^125I]-α-bungarotoxin (BTX) (Table 1). In” for “. In”

[3] = molecular target: T1, 5-HT3A (Homo sapiens, UniProt P46098); assay: Functional assays at recombinant human receptors; format: biochemical; conditions: functional potency, recombinant human receptors in vitro
T1 construct: expressed in transfected cells
T1 sequence (P46098 24-478): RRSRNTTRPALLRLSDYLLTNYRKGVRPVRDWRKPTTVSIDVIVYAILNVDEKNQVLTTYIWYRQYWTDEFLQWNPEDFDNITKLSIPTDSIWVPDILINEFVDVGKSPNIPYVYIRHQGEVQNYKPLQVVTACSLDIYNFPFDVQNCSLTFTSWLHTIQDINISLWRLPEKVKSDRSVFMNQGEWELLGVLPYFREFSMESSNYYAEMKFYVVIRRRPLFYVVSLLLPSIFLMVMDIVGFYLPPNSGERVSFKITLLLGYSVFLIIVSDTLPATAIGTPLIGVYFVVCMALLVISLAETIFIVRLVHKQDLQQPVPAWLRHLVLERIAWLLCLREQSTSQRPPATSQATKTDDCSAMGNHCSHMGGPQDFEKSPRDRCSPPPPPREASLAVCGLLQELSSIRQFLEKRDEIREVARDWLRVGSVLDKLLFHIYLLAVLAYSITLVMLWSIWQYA

[4] = molecular target: α7 receptor binding sites (Rattus norvegicus, UniProt Q05941); format: in vivo; conditions: sc, 2-4 h
α7 receptor binding sites, sequence (Q05941 23-502): as the sequence (Q05941 23-502) above

[5] = Intestinal transit (charcoal meal, glass bead); conditions: in vivo; rat, oral; read-out: NOAEL on intestinal motility
Protocol: Effects of AZD0328 on small intestinal and colorectal motility were investigated in rats using the charcoal meal test and the glass bead test, respectively (Table 3). In the first part, evaluating intestinal transit, a test meal containing charcoal as a non-absorbable marker was administered to rats. In the second part, effects of oral administration of AZD0328 on colorectal transit time was evaluated.

[6] = Multiple dose PK/TK, dog; format: in vivo; parameters: AUC/dose: unit not given beside the values; conditions: for AUC / Cmax / Tmax / AUC at 7 day / Cmax at 7 day / Tmax at 7 day / AUC at 35 day / Cmax at 35 day / Tmax at 35 day: dog, in vivo, po
Excerpt: This section provides a summary of the pharmacokinetic and metabolism properties of AZD0328 derived from in vivo studies. […] The derived PK/TK parameters from these studies are presented in Table 4 for single dose studies (DMR4, 0619LR, 20030191PCR, DMO16, DMB10, DMW12, 50190, 0190DD and 03.330/1), and are presented in Table 5 multiple dose PK/TK studies (DMR4, 0612AR, DMB15, 50190, 0190DD and 0295AD).

[7] = Maximum tolerated dose and 7 days oral toxicity in the dog; format: in vivo; conditions: both sexes, dog, in vivo, oral; dogs, single doses of 4.5 to 17 mg/kg
Protocol: (§2) Single doses of 4.5 to 17 mg/kg were administrated to test AZD0328 to 2 male and 2 female dogs. […] Signs of nausea and at the higher doses vomiting was seen. In the 7 days repeated dose study 2 male and 2 female dogs were given 35 mg/kg per day. However, vomiting was the major clinical sign recorded during the study.

[8] = system: dogs; assay: as above; format: in vivo
Protocol: as §2

[9] = both sexes, 34.6 mg/kg, dog 2F+2M, 0190DD, 34.6 mg/kg (160 μmol/kg) split in two 6 h apart, capsules fasted, day 1
[10] = both sexes, 34.6 mg/kg, dog 2F+2M, 0190DD, 34.6 mg/kg (160 μmol/kg) split in two 6 h apart, capsules fasted, day 7
[11] = both sexes, 34.6 mg/kg, dog 2F+2M, 0190DD, 34.6 mg/kg (160 μmol/kg) split in two 6 h apart, solution fasted, day 1
[12] = both sexes, 34.6 mg/kg, dog 2F+2M, 0190DD, 34.6 mg/kg (160 μmol/kg) split in two 6 h apart, solution fasted, day 7
[13] = both sexes, 138 mg/kg, dog 2F+2M, 0190DD, 138 mg/kg (640 μmol/kg) split in two 6 h apart, capsules fed, day 1
[14] = both sexes, 138 mg/kg, dog 2F+2M, 0190DD, 138 mg/kg (640 μmol/kg) split in two 6 h apart, capsules fed, day 7
[15] = female, Beagle, 8.65 mg/kg, dog 3F, 0295AD, 8.65 mg/kg (40 μmol/kg) split in two 6 h apart, capsules fed, day 7
[16] = female, Beagle, 8.65 mg/kg, dog 3F, 0295AD, 8.65 mg/kg (40 μmol/kg) split in two 6 h apart, capsules fed, day 35
[17] = female, Beagle, 17.3 mg/kg, dog 3F, 0295AD, 17.3 mg/kg (80 μmol/kg) split in two 6 h apart, capsules fed, day 7
[18] = female, Beagle, 17.3 mg/kg, dog 3F, 0295AD, 17.3 mg/kg (80 μmol/kg) split in two 6 h apart, capsules fed, day 35
[19] = female, Beagle, 26 mg/kg, dog 6F, 0295AD, 26.0 mg/kg (120 μmol/kg) split into 17.3 and 8.7 mg/kg 6 h apart, capsules fed, day 35
[20] = female, Beagle, 34.6 mg/kg, dog 6F, 0295AD, 34.6 mg/kg (160 μmol/kg) split in two 6 h apart, capsules fed, day 7
[21] = male, Beagle, 8.65 mg/kg, dog 3M, 0295AD, 8.65 mg/kg (40 μmol/kg) split in two 6 h apart, capsules fed, day 7
[22] = male, Beagle, 8.65 mg/kg, dog 3M, 0295AD, 8.65 mg/kg (40 μmol/kg) split in two 6 h apart, capsules fed, day 35
[23] = male, Beagle, 17.3 mg/kg, dog 3M, 0295AD, 17.3 mg/kg (80 μmol/kg) split in two 6 h apart, capsules fed, day 7
[24] = male, Beagle, 17.3 mg/kg, dog 3M, 0295AD, 17.3 mg/kg (80 μmol/kg) split in two 6 h apart, capsules fed, day 35
[25] = male, Beagle, 26 mg/kg, dog 6M, 0295AD, 26.0 mg/kg (120 μmol/kg) split into 17.3 and 8.7 mg/kg 6 h apart, capsules fed, day 35
[26] = male, Beagle, 34.6 mg/kg, dog 6M, 0295AD, 34.6 mg/kg (160 μmol/kg) split in two 6 h apart, capsules fed, day 7

rat brain α7 receptors, sequence (Q05941 23-502): as above

SMILES: c1cnc2c(c1)C[C@@]1(CN3CCC1CC3)O2 [AZD0328, (R)-Spiro[1-azabicyclo[2.2.2]octane-3,2′(3′H)-furo[2,3-b]pyridine]]
- Ki [1]: 4.7 nM
- GABA sIPSC frequency [2]: 251 % baseline
- functional selectivity 5-HT3A>α7 [3]: 14 fold
- Dose active: [125I]-α-bungarotoxin binding ex vivo, increased receptor number [4]: 0.1 µg/kg
- NOAEL [5]: 5.6 mg/kg
- AUC [6, 9]: 4430 ng·h/mL and 20.5 µM·h
- Cmax [6, 9]: 694 ng/mL and 3.21 µM
- Tmax [6, 9]: 1 to 3 h
- AUC [6, 10]: 6970 ng·h/mL and 32.2 µM·h
- Cmax [6, 10]: 2120 ng/mL and 9.79 µM
- Tmax [6, 10]: 1 h
- AUC [6, 11]: 4890 ng·h/mL and 22.6 µM·h
- Cmax [6, 11]: 1130 ng/mL and 5.2 µM
- Tmax [6, 11]: 0.5 h
- AUC [6, 12]: 7200 ng·h/mL and 33.3 µM·h
- Cmax [6, 12]: 1560 ng/mL and 7.22 µM
- Tmax [6, 12]: 0.5 to 1 h
- AUC [6, 13]: 11900 ng·h/mL and 55 µM·h
- Cmax [6, 13]: 1520 ng/mL and 7.04 µM
- Tmax [6, 13]: 1 to 6 h
- AUC [6, 14]: 7160 ng·h/mL and 33.1 µM·h
- Cmax [6, 14]: 1360 ng/mL and 6.27 µM
- Tmax [6, 14]: 0.5 to 6 h
- AUC/dose ([6]; dog 2F+2M, 0190DD, 34.6 mg/kg (160 μmol/kg) split in two 6 h apart, capsules fasted, day 1): 0.128 ± 0.087
- AUC/dose ([6]; dog 2F+2M, 0190DD, 34.6 mg/kg (160 μmol/kg) split in two 6 h apart, solution fasted, day 1): 0.141 ± 0.014
- AUC/dose ([6]; dog 2F+2M, 0190DD, 34.6 mg/kg (160 μmol/kg) split in two 6 h apart, solution fasted, day 7): 0.208 ± 0.088
- AUC/dose ([6]; dog 2F+2M, 0190DD, 138 mg/kg (640 μmol/kg) split in two 6 h apart, capsules fed, day 1): 0.0859 ± 0.0530
- AUC/dose ([6]; dog 2F+2M, 0190DD, 138 mg/kg (640 μmol/kg) split in two 6 h apart, capsules fed, day 7): 0.0517 ± 0.0206
- AUC/dose ([6]; dog 3F, 0295AD, 8.65 mg/kg (40 μmol/kg) split in two 6 h apart, capsules fed, day 7): 0.113 ± 0.038
- AUC/dose ([6]; dog 3F, 0295AD, 8.65 mg/kg (40 μmol/kg) split in two 6 h apart, capsules fed, day 35): 0.107 ± 0.017
- AUC/dose ([6]; dog 3F, 0295AD, 17.3 mg/kg (80 μmol/kg) split in two 6 h apart, capsules fed, day 7): 0.246 ± 0.092
- AUC/dose ([6]; dog 3F, 0295AD, 17.3 mg/kg (80 μmol/kg) split in two 6 h apart, capsules fed, day 35): 0.233 ± 0.049
- AUC/dose ([6]; dog 3M, 0295AD, 8.65 mg/kg (40 μmol/kg) split in two 6 h apart, capsules fed, day 7): 0.100 ± 0.051
- AUC/dose ([6]; dog 3M, 0295AD, 8.65 mg/kg (40 μmol/kg) split in two 6 h apart, capsules fed, day 35): 0.145 ± 0.039
- AUC/dose ([6]; dog 3M, 0295AD, 17.3 mg/kg (80 μmol/kg) split in two 6 h apart, capsules fed, day 7): 0.223 ± 0.047
- AUC/dose ([6]; dog 3M, 0295AD, 17.3 mg/kg (80 μmol/kg) split in two 6 h apart, capsules fed, day 35): 0.196 ± 0.008
- AUC/dose ([6]; dog 6F, 0295AD, 26.0 mg/kg (120 μmol/kg) split into 17.3 and 8.7 mg/kg 6 h apart, capsules fed, day 35): 0.133 ± 0.036
- AUC/dose ([6]; dog 6M, 0295AD, 26.0 mg/kg (120 μmol/kg) split into 17.3 and 8.7 mg/kg 6 h apart, capsules fed, day 35): 0.174 ± 0.029
- AUC/dose ([6]; dog 6M, 0295AD, 34.6 mg/kg (160 μmol/kg) split in two 6 h apart, capsules fed, day 7): 0.152 ± 0.075
- AUC [6, 15]: 981 ng·h/mL and 4.53 µM·h
- Cmax [6, 15]: 302 ng/mL and 1.39 µM
- Tmax [6, 15]: 1 to 7 h
- AUC [6, 16]: 924 ng·h/mL and 4.27 µM·h
- Cmax [6, 16]: 270 ng/mL and 1.25 µM
- Tmax [6, 16]: 1 to 9 h
- AUC at 7 day [6, 17]: 2130 ng·h/mL and 9.83 µM·h
- Cmax at 7 day [6, 17]: 850 ng/mL and 3.93 µM
- Tmax at 7 day [6, 17]: 0.5 to 6.5 h
- AUC at 35 day [6, 18]: 2020 ng·h/mL and 9.33 µM·h
- Cmax at 35 day [6, 18]: 439 ng/mL and 2.03 µM
- Tmax at 35 day [6, 18]: 1 to 9 h
- AUC [6, 19]: 3460 ng·h/mL and 16 µM·h
- Cmax [6, 19]: 1190 ng/mL and 5.49 µM
- Tmax [6, 19]: 1 to 8.5 h
- AUC [6, 20]: 19.2 µM·h
- AUC at 7 day [6, 20]: 4160 ± 1990 ng·h/mL
- Cmax [6, 20]: 8.69 µM
- Cmax at 7 day [6, 20]: 1880 ± 1060 ng/mL
- Tmax at 7 day [6, 20]: 0.5 to 6.5 h
- AUC at 7 day [6, 21]: 868 ng·h/mL and 4 µM·h
- Cmax at 7 day [6, 21]: 286 ng/mL and 1.32 µM
- Tmax at 7 day [6, 21]: 0.5 to 7 h
- AUC at 35 day [6, 22]: 1250 ng·h/mL and 5.79 µM·h
- Cmax at 35 day [6, 22]: 373 ng/mL and 1.73 µM
- Tmax at 35 day [6, 22]: 8.5 to 9 h
- AUC at 7 day [6, 23]: 1930 ng·h/mL and 8.92 µM·h
- Cmax at 7 day [6, 23]: 619 ng/mL and 2.86 µM
- Tmax at 7 day [6, 23]: 6.5 to 7 h
- AUC at 35 day [6, 24]: 1690 ng·h/mL and 7.85 µM·h
- Cmax at 35 day [6, 24]: 608 ng/mL and 2.81 µM
- Tmax at 35 day [6, 24]: 1 to 9 h
- AUC [6, 25]: 4530 ng·h/mL and 20.9 µM·h
- Cmax [6, 25]: 8.16 µM
- Tmax [6, 25]: 0.5 to 2 h
- AUC [6, 26]: 5260 ng·h/mL and 24.3 µM·h
- Cmax [6, 26]: 1910 ng/mL and 8.82 µM
- Tmax [6, 26]: 0.5 to 7 h
- Cmax [7]: 2.8 to 14 µM
- dose with slight QT prolongation (ECG) [8]: ≥ 8.6 mg/kg
